From US20240425452A1
Where “and” joins values, the source holds several entries; their conditions need not be identical. Equal entries are not always repeated. Where two headings read alike, the source gives them in different places.

Columns and labels:
[1] = Octanol:water partition coefficient (Log P), HPLC
Experimental: The octanol:water partition coefficients of the trans and cis isomers of 3-(2-bromo-3,4-dihydroxy-phenyl)-N-(3,4,5-trihydroxy-benzyl)-thioacrylamide were determined.
A solution of 10 mM of the trans isomer in DMSO was prepared and diluted 10-fold in water. A solution of the cis isomer was obtained by exposing the trans isomer solution (5 mL) to 125 lux light at 4° C. for 9 hours resulting in a solution containing more than 90% of the cis isomer. Partitioning in octanol:water was performed as follows: 20 μL of each solution were added to 80 μL of water (saturated by octanol, containing 1 mM of ascorbic acid) and 100 μl of octanol (saturated by water). The obtained solutions were stirred for 1 min and left for incubation at RT for 24 hours. Then, each phase was analyzed by HPLC. The concentration (C) of each isomer was determined using a calibration curve, based on the injection volume of each phase and a response factor of 1 (previously measured).
For all said analyses a volume of 13 μL was injected to the HPLC.

[2] = Stability in biorelevant fluids (FaSSGF, FaSSIF), HPLC; details: for Percent of isomer in FaSSGF / Percent of isomer in FaSSIF: 250 μM
Experimental: The stability of the trans and cis isomers of 3-(2-bromo-3,4-dihydroxy-phenyl)-N-(3,4,5-trihydroxy-benzyl)-thioacrylamide in biorelevant fluids was assessed, including Fasted State Simulated Intestinal Fluid (FaSSIF) and Fasted State Simulated Gastric Fluid (FaSSGF).
A solution containing the cis isomer of 3-(2-bromo-3,4-dihydroxy-phenyl)-N-(3,4,5-trihydroxy-benzyl)-thioacrylamide was prepared by exposing a 5 mL solution of the 100% trans isomer at a concentration of 1 mM to 125 lux light for 9 hours at 4° C.
FaSSIF and FaSSGF solutions were prepared according to the manufacturer's instructions.
The cis and trans isomers of 3-(2-bromo-3,4-dihydroxy-phenyl)-N-(3,4,5-trihydroxy-benzyl)-thioacrylamide were diluted in either FaSSIF or FaSSGF solutions to a final concentration of 250 μM. Samples were taken at time 0 and after 4 hours. Samples were frozen in liquid nitrogen, and stored frozen until analysis.

[3] = Interactions with water molecules, thermogravimetric analysis (TGA); format: physicochemical; details: TGA 30-200° C. at 10° C./min, 1 mM in water with 1% DMSO
Experimental: TGA was performed on a Perkin Elmer TGA 800 using Pyris software. A temperature scan from 30° C. to 200° C. at a rate of 10° C./min was performed. The isomers were analyzed at a concentration of 1 mM in water (containing 1% DMSO).

[4] = Exposure of trans isomer in HPCD solution to room lighting, UV analysis; format: physicochemical; details: 0.5 mg/mL in 0.025% phosphoric acid (diluted from HPCD solution), clear glass vials, room lighting several days
[5] = Exposure of trans isomer to artificial daylight, 1H NMR analysis; format: physicochemical; details: 10% d6-DMSO in buffer pH 7.4, artificial daylight 5 hr
Excerpt: A sample of substantially pure trans isomer of 3-(2-bromo-3,4-dihydroxy-phenyl)-N-(3,4,5-trihydroxy-benzyl)-thioacrylamide in 10% d6-DMSO in a buffer (pH 7.4) was irradiated with an artificial daylight for 5 hr. Thereafter, the solution was characterized by ^1H-NMR analyses.
Thus, differentiating between the two isomers can be performed using ^1H-NMR analysis.

[6] = format: physicochemical; details: 1 mM, 125 lux light
Excerpt: An additional assessment of the stability of the trans isomer upon exposure to artificial daylight was made.

[7] = simulated intestinal fluid, 0 h
[8] = simulated intestinal fluid, 0.5 h

Oc1cc(CNC(=S)C=Cc2ccc(O)c(O)c2Br)cc(O)c1O (single isomer, unassigned; isomer 3) [cis isomer]
logP at 24 h [1]: -0.18 | reduction of concentration in FaSSGF ([2]; simulated gastric fluid, 0 to 4 h): ~16% | Percent of isomer in FaSSGF ([2]; simulated gastric fluid, 0 h): 89.05% | Percent of isomer in FaSSGF ([2]; simulated gastric fluid, 0.5 h): 89.07% | Percent of isomer in FaSSGF ([2]; simulated gastric fluid, 4 h): 73.47% | Percent of isomer in FaSSIF [2, 7]: 83.49% | Percent of isomer in FaSSIF [2, 8]: 72.21% | Percent of isomer in FaSSIF ([2]; simulated intestinal fluid, 4 h, listed as Cis): 54.87% | Percent of isomer in FaSSIF ([2]; simulated intestinal fluid, 4 h, listed as cis): ~55% | Maximum evaporation rate (bound water) [3]: 12%/min | Maximum evaporation rate (free water) [3]: 37 %/min | Temperature of mid evaporation (free water) [3]: 58 °C | Maximum evaporation rate (free water) ([3]; listed as Cis isomer): 37%/min

Oc1cc(CNC(=S)/C=C/c2ccc(O)c(O)c2Br)cc(O)c1O [trans isomer]
conversion of the trans isomer to the cis isomer [4]: conversion of the trans isomer to the cis isomer | conversion of the trans isomer to the cis isomer (1H-NMR) [5]: significant conversion | logP at 24 h (physchem): 0.86 | Percent of isomer in FaSSGF ([2]; simulated gastric fluid, 0 h): 100% | Percent of isomer in FaSSGF ([2]; simulated gastric fluid, 0.5 h): 100% | Percent of isomer in FaSSGF ([2]; simulated gastric fluid, 4 h): 100% | stability in FaSSGF ([2]; simulated gastric fluid, up to 4 h): completely stable | reduction of concentration in FaSSIF ([2]; simulated intestinal fluid, 0 to 4 h): ~7% | Percent of isomer in FaSSIF [2, 7]: 98.15% | Percent of isomer in FaSSIF [2, 8]: 96.25% | Percent of isomer in FaSSIF ([2]; simulated intestinal fluid, 4 h): 90.98% | Maximum evaporation rate (bound water) [3]: 12%/min | Maximum evaporation rate (free water) [3]: 23 %/min | Temperature of mid evaporation (free water) [3]: 87 °C | Maximum evaporation rate (free water) ([3]; listed as Trans isomer): 23%/min | % cis ([6]; 0 hours): 0% | % trans ([6]; 0 hours): 100% | % trans ([6]; 1 hour): 50.5% | % cis ([6]; 2 hours): 64% and 63.7% | % trans ([6]; 2 hours): 36.3% | % cis ([6]; 4 hours): 87.7% | % trans ([6]; 4 hours): 12.3% | % trans ([6]; 5 hours): 8.5% | % cis ([6]; 6 hours): 92.1% | % trans ([6]; 6 hours): 7.9%
